Data as given in patent US20230143604A1, “QW DOSING OF GIP RECEPTOR AGONIST PEPTIDE COMPOUNDS AND USES THEREOF” (TAKEDA PHARMACEUTICAL COMPANY LIMITED, priority 2020, published 2023).
Starred links: 1 amine or outer side, 2 acyl side, 3 side chain; linkers in the order of their positions; H or OH if unused. Non-standard residues stand in square brackets, D forms with d. Residues, ends and D or L forms follow the SMILES beside them. Groups on a side chain read outwards from the residue. No end group written: not given here. *: point of attachment. C18 diacid = O=C(O)CCCCCCCCCCCCCCCCC(=O)*; C17 diacid = O=C(O)CCCCCCCCCCCCCCCC(=O)*; γGlu = O=C(O)[C@H](CCC(=O)[*:2])N[*:1]; NMeY = CN[C@@H](Cc1ccc(O)cc1)C(=O)O; AEEA = NCCOCCOCC(=O)O; Aib = CC(C)(N)C(=O)O

Key:
physchem = test: physchem
Outline: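 3 mg of peptide treated with 100 μL portions of 200 mM phosphate buffer pH 7.4, sonicating/vortexing up to 1 min, with further buffer added until fully dissolved. Solubility then quantified by HPLC.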

[1] = molecular target: T1, full-length human GIPR with an N-terminal FLAG tag (human, UniProt P48546 22-466); test: cell-based or functional assay
T1 sequence (looked up): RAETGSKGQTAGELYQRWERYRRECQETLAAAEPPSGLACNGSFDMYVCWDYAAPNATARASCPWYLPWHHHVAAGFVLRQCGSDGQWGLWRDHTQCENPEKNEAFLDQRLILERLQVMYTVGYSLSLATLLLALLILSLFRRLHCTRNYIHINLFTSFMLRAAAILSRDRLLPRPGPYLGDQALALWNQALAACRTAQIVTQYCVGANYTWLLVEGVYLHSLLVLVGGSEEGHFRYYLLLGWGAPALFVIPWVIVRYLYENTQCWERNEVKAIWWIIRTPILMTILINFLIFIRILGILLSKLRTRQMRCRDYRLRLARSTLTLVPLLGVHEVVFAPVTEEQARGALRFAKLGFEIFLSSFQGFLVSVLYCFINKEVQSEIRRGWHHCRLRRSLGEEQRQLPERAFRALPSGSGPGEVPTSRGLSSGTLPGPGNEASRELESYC

[2] = molecular target: full-length human GLP-1R with an N-terminal FLAG tag (human, UniProt P43220 24-463); test: cell-based or functional assay
[3] = pH 7.4, aqueous buffer, pH 7.4 Phosphate Buffer - Solubility, 200 mM Phosphate buffer pH 7.4

| Molecule | solubility (physchem; pH 7.4, aqueous buffer) [mg/mL] | Human GIPR cAMP EC50, HEK293T [1] [pM] | other results |
| --- | --- | --- | --- |
| CC[C@H](C)[C@H](NC(=O)[C@H](CO)NC(=O)[C@H](Cc1ccc(O)cc1)NC(=O)[C@H](CC(=O)O)NC(=O)[C@H](CO)NC(=O)[C@@H](NC(=O)[C@H](Cc1ccccc1)NC(=O)[C@@H](NC(=O)CNC(=O)[C@H](CCC(=O)O)NC(=O)C(C)(C)NC(=O)[C@H](Cc1ccc(O)cc1)NC)[C@@H](C)O)[C@@H](C)CC)C(=O)N[C@@H](C)C(=O)N[C@@H](CC(C)C)C(=O)N[C@@H](CC(=O)O)C(=O)N[C@@H](CCCCN)C(=O)N[C@@H](C)C(=O)N[C@@H](C)C(=O)N[C@@H](CCC(N)=O)C(=O)NC(C)(C)C(=O)N[C@@H](CCCCNC(=O)COCCOCCNC(=O)COCCOCCNC(=O)CC[C@H](NC(=O)CC[C@H](NC(=O)CCCCCCCCCCCCCCCCC(=O)O)C(=O)O)C(=O)O)C(=O)N[C@@H](Cc1ccccc1)C(=O)N[C@H](C(=O)N[C@@H](CC(N)=O)C(=O)N[C@@H](Cc1c[nH]c2ccccc12)C(=O)N[C@@H](CC(C)C)C(=O)N[C@@H](CC(C)C)C(=O)N[C@@H](C)C(=O)N[C@@H](CCC(N)=O)C(=O)N[C@@H](CCCNC(=N)N)C(=O)NCC(=O)O)C(C)C [Compound 176] (H-[NMeY][Aib]EGTFISDYSIALDKAAQ[Aib]K([AEEA-AEEA-γGlu-γGlu-C18 diacid])FVNWLLAQRG-OH) | ≥ 30 | – | solubility (physchem; pH 7.4): ≥ 15 mg/mL |
| CC[C@H](C)[C@H](NC(=O)[C@H](Cc1ccccc1)NC(=O)[C@@H](NC(=O)CNC(=O)[C@H](CCC(=O)O)NC(=O)C(C)(C)NC(=O)[C@H](Cc1ccc(O)cc1)NC)[C@@H](C)O)C(=O)N[C@@H](CO)C(=O)N[C@@H](CC(=O)O)C(=O)N[C@@H](Cc1ccc(O)cc1)C(=O)N[C@@H](CO)C(=O)N[C@H](C(=O)NC(C)(C)C(=O)N[C@@H](CC(C)C)C(=O)N[C@@H](CC(=O)O)C(=O)N[C@@H](CCCNC(=N)N)C(=O)N[C@@H](CCCCNC(=O)CNC(=O)CNC(=O)CNC(=O)CNC(=O)CNC(=O)CCCCCCCCCCCCCCCCC(=O)O)C(=O)N[C@@H](C)C(=O)N[C@@H](CCC(N)=O)C(=O)NC(C)(C)C(=O)N[C@@H](CC(=O)O)C(=O)N[C@@H](Cc1ccccc1)C(=O)N[C@H](C(=O)N[C@@H](CC(N)=O)C(=O)N[C@@H](Cc1c[nH]c2ccccc12)C(=O)N[C@@H](CC(C)C)C(=O)N[C@@H](CC(C)C)C(=O)N[C@@H](C)C(=O)N[C@@H](CCC(N)=O)C(=O)N[C@@H](CCCNC(=N)N)C(=O)NCC(=O)O)C(C)C)[C@@H](C)CC [Compound 284] | < 15 | – | – |
| CC[C@H](C)[C@H](NC(=O)[C@H](CO)NC(=O)[C@H](Cc1ccc(O)cc1)NC(=O)[C@H](CC(=O)O)NC(=O)[C@H](CO)NC(=O)[C@@H](NC(=O)[C@H](Cc1ccccc1)NC(=O)[C@@H](NC(=O)CNC(=O)[C@H](CCC(=O)O)NC(=O)C(C)(C)NC(=O)[C@@H](N)Cc1ccc(O)cc1)[C@@H](C)O)[C@@H](C)CC)C(=O)N[C@@H](C)C(=O)NC(C)(C)C(=O)N[C@@H](CC(=O)O)C(=O)N[C@@H](CCCCN)C(=O)N[C@@H](C)C(=O)N[C@@H](C)C(=O)N[C@@H](CCC(N)=O)C(=O)N[C@@H](C)C(=O)N[C@@H](CCCCNC(=O)COCCOCCNC(=O)COCCOCCNC(=O)CC[C@H](NC(=O)CC[C@H](NC(=O)CCCCCCCCCCCCCCCCC(=O)O)C(=O)O)C(=O)O)C(=O)N[C@@H](Cc1ccccc1)C(=O)N[C@H](C(=O)N[C@@H](CCC(=O)O)C(=O)N[C@@H](Cc1c[nH]c2ccccc12)C(=O)N[C@@H](CC(C)C)C(=O)N[C@@H](CC(C)C)C(=O)N[C@@H](C)C(=O)N[C@@H](CCC(N)=O)C(=O)N[C@@H](CCCNC(=N)N)C(=O)NCC(=O)O)C(C)C [Compound 158] (H-Y[Aib]EGTFISDYSIA[Aib]DKAAQAK([AEEA-AEEA-γGlu-γGlu-C18 diacid])FVEWLLAQRG-OH) | ≥ 30 | – | solubility (physchem; pH 7.4): ≥ 15 mg/mL |
| CC[C@H](C)[C@H](NC(=O)[C@H](CO)NC(=O)[C@H](Cc1ccc(O)cc1)NC(=O)[C@H](CC(=O)O)NC(=O)[C@H](CO)NC(=O)[C@@H](NC(=O)[C@H](Cc1ccccc1)NC(=O)[C@@H](NC(=O)CNC(=O)[C@H](CCC(=O)O)NC(=O)C(C)(C)NC(=O)[C@H](Cc1ccc(O)cc1)NC)[C@@H](C)O)[C@@H](C)CC)C(=O)N[C@@H](C)C(=O)N[C@@H](CCCCNC(=O)CNC(=O)CNC(=O)CNC(=O)CNC(=O)CNC(=O)CCCCCCCCCCCCCCCCC(=O)O)C(=O)N[C@@H](CC(=O)O)C(=O)N[C@@H](CCCNC(=N)N)C(=O)NC(C)(C)C(=O)N[C@@H](C)C(=O)N[C@@H](CCC(N)=O)C(=O)NC(C)(C)C(=O)N[C@@H](CC(N)=O)C(=O)N[C@@H](Cc1ccccc1)C(=O)N[C@H](C(=O)N[C@@H](CC(N)=O)C(=O)N[C@@H](Cc1c[nH]c2ccccc12)C(=O)N[C@@H](CC(C)C)C(=O)N[C@@H](CC(C)C)C(=O)N[C@@H](C)C(=O)N[C@@H](CCC(N)=O)C(=O)N[C@@H](CCCNC(=N)N)C(N)=O)C(C)C [Compound 250] | ≥ 0.7 | – | – |
| CC[C@H](C)[C@H](NC(=O)[C@H](Cc1ccccc1)NC(=O)[C@@H](NC(=O)CNC(=O)[C@H](CCC(=O)O)NC(=O)C(C)(C)NC(=O)[C@H](Cc1ccc(O)cc1)NC)[C@@H](C)O)C(=O)N[C@@H](CO)C(=O)N[C@@H](CC(=O)O)C(=O)N[C@@H](Cc1ccc(O)cc1)C(=O)N[C@@H](CO)C(=O)N[C@H](C(=O)NC(C)(C)C(=O)N[C@@H](CC(C)C)C(=O)N[C@@H](CC(=O)O)C(=O)N[C@@H](CCCNC(=N)N)C(=O)N[C@@H](CCCCNC(=O)COCCOCCNC(=O)COCCOCCNC(=O)CC[C@H](NC(=O)CC[C@H](NC(=O)CCCCCCCCCCCCCCCC(=O)O)C(=O)O)C(=O)O)C(=O)N[C@@H](C)C(=O)N[C@@H](CCC(N)=O)C(=O)NC(C)(C)C(=O)N[C@@H](CC(N)=O)C(=O)N[C@@H](Cc1ccccc1)C(=O)N[C@H](C(=O)N[C@@H](CC(N)=O)C(=O)N[C@@H](Cc1c[nH]c2ccccc12)C(=O)N[C@@H](CC(C)C)C(=O)N[C@@H](CC(C)C)C(=O)N[C@@H](C)C(=O)N[C@@H](CCC(N)=O)C(=O)N[C@@H](CCCNC(=N)N)C(=O)NCC(=O)NCC(=O)NCC(=O)NCC(=O)N[C@@H](CO)C(N)=O)C(C)C)[C@@H](C)CC [Compound 271] (H-[NMeY][Aib]EGTFISDYSI[Aib]LDRK([AEEA-AEEA-γGlu-γGlu-C17 diacid])AQ[Aib]NFVNWLLAQRGGGGS-NH2) | ≥ 6 | – | – |
| CC[C@H](C)[C@H](NC(=O)[C@H](CO)NC(=O)[C@H](Cc1ccc(O)cc1)NC(=O)[C@H](CC(=O)O)NC(=O)[C@H](CO)NC(=O)[C@@H](NC(=O)[C@H](Cc1ccccc1)NC(=O)[C@@H](NC(=O)CNC(=O)[C@H](CCC(=O)O)NC(=O)C(C)(C)NC(=O)[C@H](Cc1ccc(O)cc1)NC)[C@@H](C)O)[C@@H](C)CC)C(=O)N[C@@H](C)C(=O)N[C@@H](CC(C)C)C(=O)N[C@@H](CC(=O)O)C(=O)N[C@@H](CCCNC(=N)N)C(=O)N[C@@H](CCCCNC(=O)CNC(=O)CNC(=O)CNC(=O)CNC(=O)CNC(=O)CCCCCCCCCCCCCCCC(=O)O)C(=O)N[C@@H](Cc1c[nH]cn1)C(=O)N[C@@H](CCC(N)=O)C(=O)NC(C)(C)C(=O)N[C@@H](CC(N)=O)C(=O)N[C@@H](Cc1ccccc1)C(=O)N[C@H](C(=O)N[C@@H](CC(N)=O)C(=O)N[C@@H](Cc1c[nH]c2ccccc12)C(=O)N[C@@H](CC(C)C)C(=O)N[C@@H](CC(C)C)C(=O)N[C@@H](C)C(=O)N[C@@H](CCC(N)=O)C(=O)N[C@@H](CCCNC(=N)N)C(=O)N1CCC[C@H]1C(=O)N[C@@H](CO)C(=O)N[C@@H](CO)C(=O)NCC(=O)N[C@@H](C)C(=O)N1CCC[C@H]1C(=O)N1CCC[C@H]1C(=O)N1CCC[C@H]1C(=O)N[C@@H](CO)C(=O)O)C(C)C [Compound 259] | – | – | solubility (physchem; [3]): < 6 mg/mL |
| CC[C@H](C)[C@H](NC(=O)[C@H](CO)NC(=O)[C@H](Cc1ccc(O)cc1)NC(=O)[C@H](CC(=O)O)NC(=O)[C@H](CO)NC(=O)[C@@H](NC(=O)[C@H](Cc1ccccc1)NC(=O)[C@@H](NC(=O)CNC(=O)[C@H](CCC(=O)O)NC(=O)C(C)(C)NC(=O)[C@H](Cc1ccc(O)cc1)NC)[C@@H](C)O)[C@@H](C)CC)C(=O)N[C@@H](C)C(=O)N[C@@H](CC(C)C)C(=O)N[C@@H](CCCCN)C(=O)N[C@@H](CCCNC(=N)N)C(=O)N[C@@H](CCCCNC(=O)CNC(=O)CNC(=O)CNC(=O)CNC(=O)CNC(=O)CNC(=O)CCCCCCCCCCCCCCCCC(=O)O)C(=O)N[C@@H](Cc1c[nH]cn1)C(=O)N[C@@H](CCC(N)=O)C(=O)NC(C)(C)C(=O)N[C@@H](CC(N)=O)C(=O)N[C@@H](Cc1ccccc1)C(=O)N[C@H](C(=O)N[C@@H](CC(N)=O)C(=O)N[C@@H](Cc1c[nH]c2ccccc12)C(=O)N[C@@H](CC(C)C)C(=O)N[C@@H](CC(C)C)C(=O)N[C@@H](C)C(=O)N[C@@H](CCC(N)=O)C(=O)N[C@@H](CCCNC(=N)N)C(=O)N1CCC[C@H]1C(=O)N[C@@H](CO)C(=O)N[C@@H](CO)C(=O)NCC(=O)N[C@@H](C)C(=O)N1CCC[C@H]1C(=O)N1CCC[C@H]1C(=O)N1CCC[C@H]1C(=O)N[C@@H](CO)C(=O)N[C@@H](CCCNC(=N)N)C(N)=O)C(C)C [Compound 280] | – | – | solubility (physchem; [3]): < 15 mg/mL |
| YXEGTFISDYSIAXDRXAQXNFVNWLLAQSPSSGAPPPS (N-methyl Tyr 1; Aib at 2,17,20; Lys(G5-C20 diacid) at 14; C-terminal OH) [Compound No. 112] | – | 0.3 | – |
| YXEGTFISDYSIAXDRXAQXNFVNWLLAQSPSSGAPPPS (N-methyl Tyr 1; Aib at 2,17,20; Lys(G5-C20 diacid) at 14; C-terminal OH) [Compound No. 40] | – | 0.7 | – |
| [NMeY][Aib]EGTFISDYSIALDRK(2OEGgE‑C18 diacid)HQQNFVNWLLAQRPSSGAPPPS-NH2 [Compound No. 4] | – | 1 | Human GLP1R cAMP EC50, HEK293T [2]: 38900 pM |
